According to patent US11136328B2, “3,3-difluoropiperidine carbamate heterocyclic compounds as NR2B NMDA receptor antagonists” (Rugen Holdings (Cayman) Limited, priority 2015, dated 2021):

How the values were obtained:
[1] = system: rats; assay: Haloperidol-induced Catalepsy (HIC) model; type: in vivo; settings: 8 mg/kg p.o. 60 minutes before the test
Text: The Haloperidol-induced Catalepsy (HIC) model detects antipsychotic activity and the action of NR2B selective antagonists (Steece-Collier et al. Exp. Neurol. 163: 239, 2000) and was based on methods described by Chermat and Simon (J. Pharmacol., 6, 493-496, 1975). The capacity to induce catalepsy serves as an index of the liability of a test substance to induce extrapyramidal side-effects, in particular Parkinsonism. Antagonism of antipsychotic-induced catalepsy can thus serve to detect anti-Parkinson potential.
Rats were injected with haloperidol (1 mg/kg i.p.) and were examined for catalepsy at 30 minute intervals up to 360 minutes. Presence (+) or absence (−) of catalepsy was assessed by three procedures: 1) imposed crossing of the ipsilateral fore- and hind-limbs; 2) placing the animal in the Buddha position; 3) the tilting board, an automatic device that, 5 seconds after positioning the rat, displaces the rat from a horizontal to vertical position and back while it clings to a wire grid with its front paws. Akinesia and catalepsy were assessed depending on whether or not the animal moves before (akinesia) or during operation of the board (catalepsy). […]
Amphetamine (8 mg/kg p.o.), administered 60 minutes before the test (i.e. 90 minutes before the first measurement), was used as reference substance. […] Data with the reference substance were analyzed using Mann-Whitney U tests.

[2] = target: hERG channel (Homo sapiens (Human), UniProt Q12809); assay: hERG channel inhibition, whole cell patch clamp; type: cell-based; settings: 10 μM compound
Chain of hERG channel (Q12809 whole entry): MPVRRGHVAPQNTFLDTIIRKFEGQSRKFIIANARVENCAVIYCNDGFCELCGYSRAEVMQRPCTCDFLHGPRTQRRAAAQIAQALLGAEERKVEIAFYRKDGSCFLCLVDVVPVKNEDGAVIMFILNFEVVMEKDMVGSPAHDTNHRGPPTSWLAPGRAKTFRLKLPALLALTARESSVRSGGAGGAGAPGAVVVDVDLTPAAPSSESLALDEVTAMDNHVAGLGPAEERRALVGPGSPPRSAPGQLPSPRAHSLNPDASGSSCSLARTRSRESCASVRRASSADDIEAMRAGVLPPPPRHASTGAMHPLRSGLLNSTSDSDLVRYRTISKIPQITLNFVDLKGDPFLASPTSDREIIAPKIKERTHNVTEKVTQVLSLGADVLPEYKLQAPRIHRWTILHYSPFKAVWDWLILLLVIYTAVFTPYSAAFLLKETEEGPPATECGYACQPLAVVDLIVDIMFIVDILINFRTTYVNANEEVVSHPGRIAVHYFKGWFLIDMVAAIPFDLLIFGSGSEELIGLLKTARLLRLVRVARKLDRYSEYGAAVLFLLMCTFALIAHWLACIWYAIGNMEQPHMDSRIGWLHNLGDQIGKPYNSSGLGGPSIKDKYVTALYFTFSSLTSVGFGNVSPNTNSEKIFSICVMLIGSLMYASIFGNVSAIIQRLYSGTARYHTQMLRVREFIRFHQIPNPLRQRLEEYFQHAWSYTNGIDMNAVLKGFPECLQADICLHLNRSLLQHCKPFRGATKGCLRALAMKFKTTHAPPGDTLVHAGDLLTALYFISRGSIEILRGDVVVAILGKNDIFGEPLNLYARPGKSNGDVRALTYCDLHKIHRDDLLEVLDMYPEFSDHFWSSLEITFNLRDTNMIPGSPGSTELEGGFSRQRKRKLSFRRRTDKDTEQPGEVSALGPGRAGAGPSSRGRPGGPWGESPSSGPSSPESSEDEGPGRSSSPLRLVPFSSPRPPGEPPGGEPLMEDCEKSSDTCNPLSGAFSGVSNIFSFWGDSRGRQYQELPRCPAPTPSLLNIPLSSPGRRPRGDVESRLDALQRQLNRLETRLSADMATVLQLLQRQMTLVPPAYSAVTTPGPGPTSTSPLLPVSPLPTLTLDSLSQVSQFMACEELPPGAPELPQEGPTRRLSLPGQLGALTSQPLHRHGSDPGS
Description: The assay was performed on hERG channel stably expressed in HEK293 cells. The cells were cultured at 37° C. in a humidified CO2 incubator in the growth medium consisting of DMEM, 10% fetal bovine serum and antibiotics. Prior to the assay, the cells were seeded onto a 12 mm PDL-coated glass coverslip and cultured in a 35 mm Petri dish. After 16 to 40 hr culture, the cover slip was transferred into the chamber of OctaFlow perfusion system (ALA Instrument) and under a constant flow of extracellular solution (140 mM NaCl, 4 mM KCl, 1 mM MgCl2, 2 mM CaCl2, 10 mM HEPES, 10 mM D-glucose, pH 7.35, osmolarity 290). Whole cell patch clamping was performed with a glass micropipette filled with intracellular solution (120 mM KCl, 1.75 mM MgCl2, 5.4 mM CaCl2, 10 mM HEPES, 10 mM EGTA, and 4 mM ATP-K2, PH 7.2, osmolarity 310). Giga-seal was maintained during the test. The voltage control and current measurement were carried out using Axon amplifier 700B, Digidata 1440A and CLAMPEX10 software (Molecular Devices). Whole-cell hERG currents were recorded following the Petroski protocol: the cell was held at −80 mV, and the voltage step jumped from −80 to 30 mV and stay for 2 sec with a 20 ms prepulse at −40 mV. After depolarization, the voltage was decreased to −40 mV and stay for 2 sec, and returned back to −80 mV. Test compound was applied by quartz capillary tubes tip (200 μm inner diameter), and the flow rate was controlled at 2-3 ml/min with OctaFlow perfusion system. Different concentrations of the compound were applied to the cells for 5 min and the hERG current was measured three times before, during and after compound treatment. The data were analyzed using Clampfit 10 software (Molecular Devices) to generate IC50 values.

[3] = target: CYP2D6 (Homo sapiens (Human), UniProt P10635); assay: CYP P450 enzyme inhibition in pooled human liver microsomes; type: in vitro ADME; settings: 10 μM compound, pooled HLM
Chain of CYP2D6 (P10635 whole entry): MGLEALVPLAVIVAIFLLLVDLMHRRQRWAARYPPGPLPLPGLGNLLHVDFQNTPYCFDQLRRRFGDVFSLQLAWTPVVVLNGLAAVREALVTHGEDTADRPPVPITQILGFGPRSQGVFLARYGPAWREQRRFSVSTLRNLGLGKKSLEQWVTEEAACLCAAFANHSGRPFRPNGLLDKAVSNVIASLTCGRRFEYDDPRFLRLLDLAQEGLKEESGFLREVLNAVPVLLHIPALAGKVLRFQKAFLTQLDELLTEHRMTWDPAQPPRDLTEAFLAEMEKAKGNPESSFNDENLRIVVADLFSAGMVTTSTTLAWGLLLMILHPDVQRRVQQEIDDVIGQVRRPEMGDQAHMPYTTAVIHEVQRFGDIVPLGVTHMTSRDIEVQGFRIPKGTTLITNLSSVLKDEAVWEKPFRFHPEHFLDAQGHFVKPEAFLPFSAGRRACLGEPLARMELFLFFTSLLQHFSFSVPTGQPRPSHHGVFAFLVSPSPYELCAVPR
Description: Those CYP isoforms and their corresponding probe substrates are as follows: CYP1A2 (phenacetin, 30 μM), CYP2C9 (tolutamide, 100 μM), CYP2C19 (S-mephenytoin, 40 μM), CYP2D6 (dextromethorphan, 5 μM) and CYP3A4 (midazolam, 1 μM). All probe substrates were used at concentrations near or below their Kms. For experiment, a reaction mixture of test compound at 10 μM or in serial dilution, CYP probe substrate described above and 0.2 mg/mL pooled HLM in phosphate buffer, pH 7.4 in a final volume of 200 μL was pre-incubated at 37° C. for 10 minutes in triplicate. The reaction was initiated by addition of NADPH at final concentration of 1 mM. The reaction was terminated after 10 minutes (CYP1A2, CYP2D6 and CYP3A4) or 30 minutes (CYP2C9 and CYP2C19) by addition of 100 μL ice-cold acetonitrile with internal standard (IS). The samples were then centrifuged at 13,000 rpm and the supernatants were injected to LC-MS/MS (Agilent Technologies) to quantify the concentration of the specific metabolites of the probe substrates formed by individual CYP450 isoforms. The inhibition ratio is calculated as: (Mt−M0)/Mwater×100% in which Mt and M0 represent the concentrations of the specific probe substrate metabolite, which was formed by individual CYP450 isoform, at the beginning and end of the reaction in the presence of test compound; while Mwater represents the concentration of the specific metabolite at the end of the reaction in the absence of test compound. Test compound concentration-dependent response data experiments performed in triplicate.

[4] = system: rats; assay: Electroconvulsive Threshold Test (ECT); type: in vivo; settings: 3, 10 and 30 mpk p.o., mesylate salt
Description: (§1) Test compound E1-8.2 was administered as the free base.
Rats were administered ECS (rectangular current: 0.6 ms pulse width, 1.5 s duration, 200 Hz) via earclip electrodes connected to a constant current shock generator (Ugo Basile: type 7801). Test compounds were administered by oral gavage (p.o.) 1 hour before the test at a dose volume of 5 mL/kg.
Treatment groups of 20 rats were exposed to ECS as follows: The first animal was exposed to 30 mA of ECS. […] (increases of 5 mA) until the first tonic convulsion was observed. Once the first tonic convulsion was observed, the intensity of ECS was decreased by 2 mA for the next animal and then decreased or increased by 2 mA from animal to animal depending on whether the previous animal convulsed or not. If the first animal did convulse (tonic convulsions) within 5 seconds, animal no 2 is exposed to 25 mA, etc. . . . (decreases of 5 mA) until the absence of tonic convulsions was observed. At this point, the intensity of ECS was increased by 2 mA for the next animal and then decreased or increased by 2 mA from animal to animal depending on whether the previous animal convulsed or not. The minimum current intensity applied is 5 mA and the maximum 95 mA. The first 5 animals serve to approach threshold current and were not included in the analysis. The results are presented as the mean current intensity administered to the final 15 animals of a group. The test was performed blind. A positive percent change indicates an anticonvulsant effect. A negative percent change indicates a proconvulsant effect. The test substance was evaluated at 4 doses, typically using 0.5% dimethylsulfoxide, 4% hydroxypropyl-b-cyclodextrin water as a vehicle, and administered p.o. 60 minutes before ECS, and compared with a vehicle control group. Diazepam (16 mg/kg p.o.), administered under the same experimental conditions, was used as reference substance. The experiment included 6 groups. Data with the test substance was analyzed by comparing treated groups with vehicle control using one-way ANOVA followed by Dunnett's t tests.

[5] = system: rats; assay: Pentylenetetrazole (PTZ) Seizure Test; type: in vivo; settings: 10 mg/kg p.o. 30 min before PTZ 100 mg/kg s.c.
Description: Rats, placed in individual macrolon cages (25×19×13 cm), were injected with pentylenetetrazole (PTZ) (100 mg/kg s.c.). The occurrence and latency of clonic and tonic convulsions and death were noted over a 30 minute period. 15 rats were studied per group. The test was performed blind.
as §1
Compounds were evaluated typically using 0.5% dimethylsulfoxide, 4% hydroxypropyl-b-cyclodextrin water as a vehicle at 1 or more doses (e.g., 1, 3 and 10 mg/kg), administered p.o. 30 minutes before PTZ, and compared with a vehicle control group. Diazepam (16 mg/kg p.o.), administered 60 minutes before PTZ, was used as reference substance. The experiment was performed over 2 separate sub-experiments with N=7 to 8 animals per group and per sub-experiment. Quantitative data (latencies) with the test substance was analyzed by comparing treated groups with vehicle control using Kruskal-Wallis test followed by Mann-Whitney U test. Quantitative data with the reference substance was analyzed using Mann-Whitney U test. Quantal data (frequencies) was analyzed by comparing treated groups with vehicle control using Fisher's Exact Probability tests (*=p<0.05; **=p<0.01; ***=p<0.001).

[6] = system: rats; assay: Rat formalin model; type: in vivo; settings: each of 10, 30 and 60 mpk i.p., mesylate salt
Description: The rat formalin model is a tonic model of continuous pain resulting from formalin-induced spontaneous nociceptive behaviors. Intra-paw injection of formalin is a commonly used model to measure spontaneous nociceptive behaviors in rodents (Dubuisson, D. and Dennis, S. G. Pain 4:161, 1977). Subcutaneous plantar injection of formalin causes a bi-phasic nocifensive behavioral response in rodents. The early phase (phase-1) lasts for about 5-10 min following which an interphase occurs without any discernible nociceptive reactions after which the late phase (phase-II) nociceptive reaction ensues continuing from about 20-60 min following formalin injection. Formalin model is a model of tonic, persistent pain, and is widely used for rapid screening of novel analgesic compounds. […] In the present example, effects of test item were assessed in 0-5 minutes from the early phase (phase-I) and 20-35 minutes from the late phase (phase-II) of formalin-induced nociceptive behavior. […]
For all groups, animals were acclimated to the observation chamber for 15 minutes immediately prior to formalin injection. All animals received an intraplantar subcutaneous injection of 50 μL of 5% formalin into the left hind paw and then placed immediately into an observation chamber and formalin-evoked spontaneous nociceptive behaviors in the rats were continuously recorded for 0-60 min using a commercial camcorder. […]

[7] = system: rats; assay: Cortical spreading depression (CSD) migraine model; type: in vivo
Description: The cortical spreading depression model is utilized to investigate whether treatment with compounds of the present invention affect electrophysiological and hemodynamic events in a rat model of migraine.
Rats were anesthetized with 5% isoflurane (in 70% N2O and 30% O2; flow 300 ml/min) and placed in a stereotactic frame. […] The rectal temperature was maintained at 37.0±1.0° C. with a homeothermic blanket system. The skin was opened by a medial incision and retracted laterally. Three burr holes were drilled under saline cooling over the right hemisphere at the following coordinates (mm from bregma): (1) posterior 4.5, lateral, 2.0 (occipital cortex): KCl application site; (2) posterior 0.5, lateral 2.0 (parietal cortex): LDF recording site; (3) anterior 2, lateral 2 (frontal cortex): DC potential recording site. A laser-Doppler flow probe (Oxyflow, Oxford Optronics, UK) to monitor CBF and an invasive Ag/AgCl electrode for measuring direct current (DC) potential shifts were placed in the parietal and frontal cortex burr holes on the intact dura and in the cortex, respectively. The laser-Doppler flow probe was positioned in an area free of large pial and dural vessels to minimize a large-vessel contribution to the signal. For the DC-potential measurement, a reference electrode was fixed in the neck. Dura overlying the occipital cortex was gently removed and care was taken to avoid bleeding. After surgical preparation, the cortex was allowed to recover for 15 minutes under saline irrigation. A cotton ball (2 mm diameter) soaked with 1M KCl was placed on the pial surface and kept moist by placing 5 μl of KCl solution every 15 minutes. Test compound or vehicle was administered ten (10) minutes prior to CSD initiation. […] The number of KCl-induced CSDs was counted for 2 hours. The CBF and DC-potentials were monitored continuously starting from 5 minutes before KCl exposure.
Test compound E1-1.2 was administered as a mesylate salt (mpk based on molecular weight of the mesylate salt).
The data was collected in Windaq acquisition software (Dataq Instruments, USA) at 20 kHz. The raw data was analyzed in Clampfit program (Axon Instruments, USA). The signals were low pass filtered (cut off range 5-10000 Hz) that CSD episodes in DC and CBF could be confirmed. The following parameters were analyzed: i) the number, duration and amplitude of DC-potentials, and ii) the number and amplitude of CBF events.

[8] = E1-1.2 at various doses, MK-801 1.25 mg/kg

Structure (SMILES) | anticataleptic activity [1] | hERG @ 10 μM (%) [2] | CYP2D6 @ 10 μM (%) [3] | activity on electroconvulsive threshold [4] | change in latency to death [5] | change in number of deaths vs vehicle controls [5] | cumulative time spent on nociceptive behavior in phase I (0-5 mins) [6] | cumulative time spent on nociceptive behavior in phase II (20-35 mins) [6] | magnitude of CBF vs vehicle [7] | number of DC potentials vs vehicle group ([7]; 3 mpk, 10 mpk and 30 mpk, mesylate salt) | number of CBF events vs vehicle ([7]; E1-1.2 at 10 mg/kg, MK-801 at 1.25 mg/kg) | amplitude of DC potentials vs vehicle [7, 8] | duration of DC potentials vs vehicle [7, 8]
CC(N)Cc1ccccc1 (stereo not shown) [amphetamine] | showed the expected robust anticataleptic activity |  |  |  |  |  |  |  |  |  |  |  | 
Cc1ccc(COC(=O)N2CC[C@H](CNc3nccn4cnnc34)C(F)(F)C2)cc1 [Compound E1-1.2, (+)-R-4-methylbenzyl 4-(([1,2,4]triazolo[4,3-a]pyrazin-8-ylamino)methyl)-3,3-difluoropiperidine-1-carboxylate] |  | 17% | 14% | robust anticonvulsant activity | +35% | −91% | decreased | decreased | unchanged | significantly decreased | decreased | not statistically different compared to vehicle | not statistically different compared to vehicle
